Data published in patent US20040053893A1, “Method of assaying iysophospholipase d activity” (priority 2000, published 2004).

Experiments:
LPLD in human serum = LPLD in human serum (Homo sapiens, UniProt Q13822); assay: LPLD activity assay with chromogenic substrates, human serum sample (Example 6); details: pH 8.0, 37° C., p-nitrophenol release at 405 nm, compared with 1-acyl-2-hydroxy substrates B and D (FIG. 2-1)
Description: 2-[4-(2-hydroxyethyl)-1-piperazinyl]ethanesulfonic acid (100 mmol/L), Triton X-100 (0.01%)
Using human serum as a sample, 5% human serum albumin (fatty acid free: Sigma) solution was used for determining the activity in albumin fraction in the serum, and a 5 U/mL solution of Streptomyces-derived PLD (product abbreviation PLDP: Asahi Chemical Industry Co., Ltd.) was used for determining the reactivity with phospholipase D (PLD).
Each sample (10 μL) and reagent A (150 μL) were dispensed to a microplate and the plate was incubated at 37° C. for about 5 min. Thereto was added reagent C (50 μL) and the absorbance at a dominant wavelength of 405 nm and sub wavelength of 540 nm was measured with the lapse of time. The LPLD activity was determined based on changes in absorbance per minute that depend on p-nitrophenol released by the action of LPLD. The activity is expressed by the amount of p-nitrophenol released in one minute per 1 mL of the reaction mixture.

LPLD = assay: Substrate specificity of purified LPLD or recombinant LPLD (Table 1); type: biochemical
Description: The thus-obtained purified LPLD or recombinant LPLD has a substrate specificity as shown in, for example, Table 1.

[1] = target: T1, LPLD in control serum (CONSERA, Lipid Serum II) (Homo sapiens, UniProt Q13822); assay: LPLD activity assay at various reaction pHs, control sera (Example 5); type: biochemical; details: reagent B pH 7.6-8.6, 37° C. (FIG. 1)
T1 construct: Two kinds of commercially available control serum; purchased Nissui Pharmaceutical Co. (CONSERA); Eiken Chemical Co., Ltd. (Lipid Serum II); host or cells: commercial control serum
Description: (1) Preparation of Reagent

human serum albumin = human serum albumin (Homo sapiens, UniProt P02768); details: 5% human serum albumin, reagent B pH 7.6-8.6, 37° C. (FIG. 1)
Description: Reagent A: N-(2-hydroxyethyl)piperazine-N′-3-propanesulfonic acid (200 mmol/L), Triton X-100 (0.02%)
Reagent B: reagent A was separated and adjusted to pH 7.6, 7.8, 8.0, 8.2, 8.4 and 8.6, diluted 2-fold to give reagent B having various pHs.
citric acid monohydrate (10 mmol/L), Triton X-100 (0.01%), 1-hydroxy-2-linoleoyl-phosphatidyl-p-nitrophenol (Example 3; 10 mmol/L) prepared in the above-mentioned Example.
Two kinds of commercially available control serum, respective test sample 1 (CONSERA: Nissui Pharmaceutical Co.) and test sample 2 (Lipid Serum II: Eiken Chemical Co., Ltd.), and 5% human serum albumin (fatty acid free: Sigma) solution for determination of the activity of albumin fraction in the serum, were used.
Each sample (10 μL) and reagent B (150 μL) were dispensed to a microplate and the plate was incubated at 37° C. for about 5 min. Thereto was added reagent C (50 μL) and the absorbance at a dominant wavelength of 405 nm and sub wavelength of 540 nm was measured with the lapse of time. The LPLD activity was determined based on changes in absorbance per minute that depend on p-nitrophenol released by the action of LPLD. The activity is expressed by the amount of p-nitrophenol released in one minute per 1 mL of the reaction mixture.

[2] = target: T2, purified LPLD (bovine lysophospholipase D) (Bos taurus, UniProt A1A4K5); assay: LPLD activity assay using purified LPLD at various reaction pHs (Example 12); type: biochemical; details: purified LPLD of Example 9, 37° C., 405 nm (FIG. 5)
T2 construct: The starting material, FCS, and respective fractions obtained in the above-mentioned (1)-(7) were assayed for lysophospholipase D activity; from tissue; host or cells: fetal calf serum (FCS), chromatographic purification
Description: (2) Preparation of Reagents
Reagent C: 1-myristoyl-phosphatidyl-p-nitrophenol was dissolved in reagent B to correspond to 10 mmol/L and used as reagent C.
For assay, biochemical automatic analyzer (Toshiba Corporation: TBA-80FR NEO) was used. The purified LPLD (8 μL) obtained in Example 9 and reagent A (240 μL) were pre-warmed at 37° C. for about 15 min, and after addition of reagent C (80 μL), the absorbance at dominant wavelength 405 nm and sub wavelength of 505 nm was measured with lapse of time for about 15 min.

Chain of human serum albumin (P02768 25-609): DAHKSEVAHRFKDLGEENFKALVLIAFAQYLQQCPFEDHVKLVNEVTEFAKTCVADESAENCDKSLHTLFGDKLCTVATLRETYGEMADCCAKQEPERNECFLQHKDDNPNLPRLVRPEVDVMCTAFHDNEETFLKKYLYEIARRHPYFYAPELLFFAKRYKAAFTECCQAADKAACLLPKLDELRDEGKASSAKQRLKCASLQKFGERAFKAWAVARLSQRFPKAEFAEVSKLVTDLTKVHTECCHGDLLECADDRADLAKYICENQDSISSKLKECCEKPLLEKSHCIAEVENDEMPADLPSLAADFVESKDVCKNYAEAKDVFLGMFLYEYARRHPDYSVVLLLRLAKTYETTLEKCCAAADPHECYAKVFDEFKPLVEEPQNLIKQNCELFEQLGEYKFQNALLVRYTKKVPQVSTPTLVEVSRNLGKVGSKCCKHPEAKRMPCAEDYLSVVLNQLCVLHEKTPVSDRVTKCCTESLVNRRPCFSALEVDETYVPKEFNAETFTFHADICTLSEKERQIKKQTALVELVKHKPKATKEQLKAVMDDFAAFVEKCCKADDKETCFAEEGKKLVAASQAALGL

Compound | Reaction product (LPLD) | also measured
CCCCCCCC/C=C\CCCCCCCC(=O)OC(CO)COP(=O)(O)Oc1ccc([N+](=O)[O-])cc1 (centres unmarked) [substrate C] | – | response to human serum (LPLD in human serum): higher
lysophosphatidylcholine | lysophosphatidic acid, choline | –
lysophosphatidylethanolamine | lysophosphatidic acid, | –
CCCCCCCCCCCCC/C=C/[C@@H](O)[C@@H](N)COP(=O)([O-])OCC[N+](C)(C)C [lysosphingomyelin] | Sphingosine-1-phosphate, | –
1-alkenyl-2-hydroxy-glycerophosphocholine | 1-alkenyl-2-hydroxy-glycero-3- | –
CCCCC/C=C\C/C=C\CCCCCCCC(=O)OC(CO)COP(=O)(O)Oc1ccc([N+](=O)[O-])cc1 (centres unmarked) [substrate A] | – | LPLD activity as a function of reaction pH [1]: potent when pH is on the alkaline side; activity in a human serum albumin fraction as a function of reaction pH (human serum albumin): also increases; response to human serum (LPLD in human serum): higher
lysophosphatidylinositol | lysophosphatidic acid, | –
CCCCCCCCCCCCCC(=O)OCC(O)COP(=O)(O)Oc1ccc([N+](=O)[O-])cc1 (centres unmarked) [1-myristoyl-phosphatidyl-p-nitrophenol] | – | LPLD activity as a function of reaction pH [2]: stronger activity was found when pH was on the alkaline side
lysophosphatidylserine | lysophosphatidic acid, serine | –
